Measured values taken from patent publication US6956036B1, “6-hydroxy-indazole derivatives for treating glaucoma” (Alcon, Inc., priority 2000, dated 2005).

Assays:
5-HT2 receptor = molecular target: T1, 5-HT2 receptor (Rattus norvegicus, UniProt P14842); test: 5-HT2 Functional Assay: Phosphoinositide (PI) Turnover Assay; type: cell-based; settings: for EC50: [3H]inositol phosphates production in A7r5 rat vascular smooth muscle cells
T1 construct: A7r5 rat vascular smooth muscle cells; endogenous in cells; host or cells: A7r5 rat vascular smooth muscle cells
T1 sequence (P14842 whole entry): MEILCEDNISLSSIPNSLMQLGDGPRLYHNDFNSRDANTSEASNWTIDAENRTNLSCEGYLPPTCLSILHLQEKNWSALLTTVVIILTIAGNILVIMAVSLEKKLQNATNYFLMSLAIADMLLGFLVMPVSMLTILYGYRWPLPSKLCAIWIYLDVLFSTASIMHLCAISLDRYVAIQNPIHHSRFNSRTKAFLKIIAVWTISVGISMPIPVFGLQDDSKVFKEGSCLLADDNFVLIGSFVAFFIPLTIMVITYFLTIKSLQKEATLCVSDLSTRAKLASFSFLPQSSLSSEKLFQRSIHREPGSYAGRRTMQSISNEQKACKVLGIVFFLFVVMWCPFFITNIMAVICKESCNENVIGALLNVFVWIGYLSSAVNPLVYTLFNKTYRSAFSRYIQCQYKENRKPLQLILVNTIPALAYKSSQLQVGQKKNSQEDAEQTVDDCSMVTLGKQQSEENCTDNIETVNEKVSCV
Method: 5-HT2 Functional Assay: Phosphoinositide (PI) Turnover Assay
The relative agonist activity of serotonergic compounds at the 5-HT2 receptor can be determined in vitro using the ability of the compounds to stimulate the production of [^3H]inositol phosphates in [^3H]myo-inositol-labeled A7r5 rat vascular smooth muscle cells by their ability to activate the enzyme phospholipase C. These cells are grown in culture plates, maintained in a humidified atmosphere of 5% CO2 and 95% air and fed semi-weekly with Dulbecco's modified Eagle medium (DMEM) containing 4.5 g/l glucose and supplemented with 2 mM glutamine, 10 μg/ml gentamicin, and 10% fetal bovine serum. For the purpose of conducting the phosphoinositide (PI) turnover experiments, the A7r5 cells are cultured in 24-well plates as previously [J. Pharmacol. Expt. Ther., 286, 411 (1998)]. Confluent cells are exposed for 24–30 hrs to 1.5 μCi [^3H]-myo-inositol (18.3 Ci/mmol) in 0.5 ml of serum-free medium. Cells are then rinsed once with DMEM/F-12 containing 10 mM LiCl prior to incubation with the test agent (or solvent as the control) in 1.0 ml of the same medium for 1 hr at 37° C., after which the medium is aspirated and 1 ml of cold 0.1 M formic acid added to stop the reaction. The chromatographic separation of [3H]-inositol phosphates ([^3H]-IPs) on an AG-1-X8 column is performed as previously described [J. Pharmacol. Expt. Ther. 286, 411 (1998)] with sequential washes with H2O and 50 mM ammonium formate, followed by elution of the total [^3H]-IPs fraction with 1.2 M ammonium formate containing 0.1 M formic acid. The eluate (4 ml) is collected, mixed with 15 ml scintillation fluid, and the total [^3H]-IPs determined by scintillation counting on a beta-counter. Concentration-response data are analyzed by the sigmoidal fit function of the Origin Scientific Graphics software (Microcal Software, Northampton, Mass.) to determine agonist potency (EC50 value) and efficacy (Emax). Serotonin (5-HT) is used as a positive control (standard) agonist compound and the efficacy of test compounds is compared to that of 5-HT (set at 100%). The concentration of the compound needed to stimulate the production of [^3H]-IPs by 50% of the maximum response is termed the EC50 value.

[1] = A7r5 cells, efficacy compared to that of 5-HT (set at 100%)

CC(N)Cn1ncc2ccc(OC(=O)C(C)(C)C)cc21.O=C(O)/C=C/C(=O)O (centres unmarked)
melting point: 180 to 182 °C

COc1ccc2c(C)nn(CC(C)N)c2c1.O=C(O)/C=C/C(=O)O (centres unmarked) [Example 1, 2-(6-Methoxy-3-methyl-indazol-1-yl)-1-methylethylamine Fumarate]
melting point: 150 to 152 °C
Emax (5-HT2 receptor; [1]): 71%
EC50 (5-HT2 receptor): 578 nM

Cc1nn(CC(C)N)c2cc(O)ccc12.O=C(O)/C=C/C(=O)O (centres unmarked) [Example 2, 1-(2-Aminopropyl)-3-methyl-1H-indazol-6-ol Fumarate]
melting point: 166 to 168 °C
Emax (5-HT2 receptor; [1]): 87%
EC50 (5-HT2 receptor): 483 nM

COc1ccc2cnn(CC(C)N)c2c1 (centres unmarked) [Example 4, 2-(6-Methoxy-indazol-1-yl)-1-methyl-ethylamine]
Emax (5-HT2 receptor; [1]): 73%
EC50 (5-HT2 receptor): 243 nM

COc1ccc2c(Cl)nn(CC(C)N)c2c1 (centres unmarked) [Example 5, 2-(3-Chloro-6-methoxy-indazol-1-yl)-1-methyl-ethylamine]
Emax (5-HT2 receptor; [1]): 64%
EC50 (5-HT2 receptor): 541 nM

CC(N)Cn1nc(Cl)c2ccc(O)cc21 (centres unmarked) [Example 6, 1-(2-Aminopropyl)-3-chloro-1H-indazol-6-ol]
Emax (5-HT2 receptor; [1]): 84%
EC50 (5-HT2 receptor): 1050 nM

CC(N)Cc1c[nH]c2ccc(O)cc12 (stereo not drawn) [α-Methylserotonin, reference compound]
Efficacy (Emax, %) (5-HT2 receptor; [1]): 104%
